Reference: US20140088306A1, “RADIOACTIVE FLUORINE-LABELED QUINOXALINE COMPOUND” (Nihon Medi-Physics Co., Ltd., priority 2012, published 2014)

Legend:
Aβ1-42 aggregates = molecular target: T1, Aβ1-42 aggregates (Homo sapiens, UniProt P05067); experiment: Binding evaluation using Aβ peptide aggregation in solution (Example 13); details: for Ki: inhibition of [^125I]IMPY binding to Aβ1-42 aggregates, value following ± shows SE, read-out: Kl
T1 construct: Aβ1-42 aggregates (Peptide Institute, Inc, Osaka) were dissolved in 0.1 mol/L phosphate-buffered saline; purchased Peptide Institute, Inc., Osaka
T1 sequence (P05067 672-713 limits assumed): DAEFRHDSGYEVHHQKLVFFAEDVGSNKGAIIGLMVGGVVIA
Protocol: Aβ1-42 peptide (Peptide Institute, Inc., Osaka) was gently dissolved at a concentration of 0.25 mg/mL in a PBS solution (pH 7.4), which was then incubated at 37° C. for 42 hours to prepare an Aβ1-42 aggregate PBS solution.
Thereafter, the resultant was filtered through Whatman (R) GF/B filter using a Brandell M-24 cell harvester, and the radioactivity of the filter was measured using a γ counter (Wallac 1470 Wizard, from Perkin-Elmer).
The half inhibition concentration (IC50) value was determined from a replacement straight line using GraphPad Prism 5.0, and the inhibition constant (Ki) was calculated using the Cheng-Prusoff equation: the above-described Expression (1).

amyloid plaques = experiment: Autoradiography using postmortem brain section of patient with Alzheimer's disease (Example 7); assay type: binding, human (Alzheimer's disease patient); details: brain section (temporal lobe) of Alzheimer's disease patient; 0.37 MBq/100 μL, 1 hour
Protocol: A postmortem autopsy brain section (temporal lobe) of a patient with Alzheimer's disease was incubated together with each of [^18F]E3, [^18F]D3, [^18F]E1, and [^18F]E2 (0.37 MBq/100 μL each) at room temperature for 1 hour. The resultant was washed with a 50 volume % ethanol aqueous solution (2 minutes×2) and water (2 minutes×2), and after drying, the section was contacted with BAS imaging plate (from Fujifilm Corporation) for 1.5 hours. The image of autoradiography was obtained using BAS5000 scanner system (from Fujifilm Corporation).
A section adjacent to the brain section used was immunostained in the following manner.
First, a paraffin-embedded brain section of the Alzheimer's disease patient (temporal lobe, 6 μm in thickness) was incubated with xylene (15 minutes×2), ethanol (1 minute×2), a 90 volume % ethanol aqueous solution (1 minute×2), and a 70 volume % ethanol aqueous solution (1 minute×1) in that order for complete deparaffinization, and then washed in water (2.5 minutes×2). Thereafter, the section was subjected to autoclave treatment for 15 minutes in 0.01 mol/L citrate buffer solution (pH 6.0). The resultant was incubated in PBS-Tween20 (5 minutes×2), and a mouse anti-Aβ1-42 primary monoclonal antibody (from Wako Pure Chemical Industries Ltd.) was then added thereto, which was then incubated at room temperature overnight. The resultant was incubated in PBS-Tween20 (2 minutes×3), and a biotin-goat anti-mouse IgG (from Funakoshi Co., Ltd.) was then added thereto, which was then incubated at room temperature for 1 hour. The resultant was incubated in PBS-Tween20 (5 minutes×3), and a streptavidin-peroxidase complex (from Funakoshi Co., Ltd.) was added thereto, which was then incubated at room temperature for 30 minutes. In addition, the resultant was incubated in PBS-Tween20 (2 minutes×3); 3,3′-diaminobenzidine was added thereto, which was then incubated at room temperature for 30 minutes; and after washing with water, the section was observed under a microscope to provide an immunostained image (FIG. 10).

[1] = In vivo radioactivity distribution experiment (Example 8); details: ddY mice, tail vein, SD in parenthesis
Protocol: Through the tail vein of ddY mice (male, 5 week-old) was injected each of a 10 volume % ethanol-containing saline solution of [^18F]E3 (45.4 kBq, 100 μL), a 10 volume % ethanol-containing saline solution of [^18F]D3 (38.2 kBq, 100 μL), a 10 volume % ethanol-containing saline solution of [^18F]E1 (45.1 kBq, 100 μL), and a 10 volume % ethanol-containing saline solution of [^18F]E2 (40.6 kBq, 100 μL). Five mice were used for each group and sacrificed 2, 10, 30, and 60 minutes after administration to remove major organs. The blood and organs were weighed and further measured for radioactivity using a γ counter. The amount of radioactivity per unit mass was measured in each organ to evaluate radioactivity distribution.

## Nc1ccc(-c2cnc3cc(OCCF)ccc3n2)cc1 [Compound D1, 4-(6-(2-Fluoroethoxy)quinoxalin-2-yl)aniline]
Aβ1-42 aggregates
  Ki: 242 ± 29 nM

## CNc1ccc(-c2cnc3cc(OCCF)ccc3n2)cc1 [Compound D2, 4-(6-(2-Fluoroethoxy)quinoxalin-2-yl)-N-methylaniline]
Aβ1-42 aggregates; Ki of D2 compared with D1
  binding affinity relative to D1: ≥ 10 times
Aβ1-42 aggregates
  Ki: 15.7 ± 1.28 nM

## CNc1ccc(-c2cnc3ccc(OCC[18F])cc3n2)cc1 [[^18F]E2, 4-(7-(2-[^18F]Fluoroethoxy)quinoxalin-2-yl)-N-methylaniline]
Amyloid plaques
  visualization of gray matter / amyloid plaques by autoradiography: did not visualize the gray matter but rather strongly visualized the white matter
[1]; 2 min. after
  Radioactivity Amount, Blood: 3.37 (0.46) % injected dose/g
  Radioactivity Amount, Bone: 1.86 (0.53) % injected dose/g
  Radioactivity Amount, Brain: 5.96 (0.48) % injected dose/g
  Radioactivity Amount, Heart: 7.42 (0.53) % injected dose/g
  Radioactivity Amount, Intestine: 3.46 (0.75) % injected dose/g
  Radioactivity Amount, Kidney: 11.8 (2.51) % injected dose/g
  Radioactivity Amount, Liver: 6.84 (1.50) % injected dose/g
  Radioactivity Amount, Lung: 6.71 (0.24) % injected dose/g
  Radioactivity Amount, Pancreas: 5.42 (0.13) % injected dose/g
  Radioactivity Amount, Spleen: 2.71 (0.44) % injected dose/g
  Radioactivity Amount, Stomach*: 1.13 (0.18) % injected dose per organ
[1]; 10 min. after
  Radioactivity Amount, Blood: 3.83 (1.24) % injected dose/g
  Radioactivity Amount, Bone: 1.91 (0.54) % injected dose/g
  Radioactivity Amount, Brain: 3.77 (0.40) % injected dose/g
  Radioactivity Amount, Heart: 4.41 (0.17) % injected dose/g
  Radioactivity Amount, Intestine: 12.5 (2.77) % injected dose/g
  Radioactivity Amount, Kidney: 7.55 (0.36) % injected dose/g
  Radioactivity Amount, Liver: 11.7 (0.58) % injected dose/g
  Radioactivity Amount, Lung: 4.98 (0.56) % injected dose/g
  Radioactivity Amount, Pancreas: 4.91 (0.95) % injected dose/g
  Radioactivity Amount, Spleen: 4.53 (0.62) % injected dose/g
  Radioactivity Amount, Stomach*: 2.11 (0.55) % injected dose per organ
[1]; 30 min. after
  Radioactivity Amount, Blood: 3.10 (0.34) % injected dose/g
  Radioactivity Amount, Bone: 2.07 (3.97) % injected dose/g
  Radioactivity Amount, Brain: 2.18 (0.22) % injected dose/g
  Radioactivity Amount, Heart: 8.53 (12.0) % injected dose/g
  Radioactivity Amount, Intestine: 20.3 (2.55) % injected dose/g
  Radioactivity Amount, Kidney: 3.92 (0.45) % injected dose/g
  Radioactivity Amount, Liver: 7.95 (1.32) % injected dose/g
  Radioactivity Amount, Lung: 3.34 (0.55) % injected dose/g
  Radioactivity Amount, Pancreas: 2.60 (0.25) % injected dose/g
  Radioactivity Amount, Spleen: 3.33 (0.66) % injected dose/g
  Radioactivity Amount, Stomach*: 1.56 (0.34) % injected dose per organ
[1]; 60 min. after
  Radioactivity Amount, Blood: 3.40 (0.32) % injected dose/g
  Radioactivity Amount, Bone: 2.36 (1.16) % injected dose/g
  Radioactivity Amount, Brain: 1.91 (0.15) % injected dose/g
  Radioactivity Amount, Heart: 3.92 (0.64) % injected dose/g
  Radioactivity Amount, Intestine: 22.1 (2.95) % injected dose/g
  Radioactivity Amount, Kidney: 3.12 (0.41) % injected dose/g
  Radioactivity Amount, Liver: 6.95 (0.68) % injected dose/g
  Radioactivity Amount, Lung: 4.06 (0.99) % injected dose/g
  Radioactivity Amount, Pancreas: 2.73 (0.31) % injected dose/g
  Radioactivity Amount, Spleen: 3.17 (0.62) % injected dose/g
  Radioactivity Amount, Stomach*: 2.73 (2.44) % injected dose per organ
